The subject of series [1] is C57BL6 mice. Kind of series: Lethal endotoxic shock mouse model (25 mg/kg E. coli W3110 LPS i.p.). Type of series: in vivo. To be noted: for survival rate: preliminary experiment; for survival: repeat experiment. The protocol: FIG. 4. ALSA 468 therapeutically rescues mice from lethal endotoxic shock. Lethal endotoxic shock was induced in 6-8 week old C57BL6 mice by injecting 25 mg/kg of E. coli LPS (strain W3110) i.p. […]
To determine if ASLA 468 is capable of therapeutically rescuing mice that have received a lethal dose of pro-inflammatory Ec LPS, an in vivo mouse model of lethal endotoxin septic shock was used. Medzhitov, R. Nat. Rev. Immunol. 2001, 1, 135-145; Remick et al., Shock 2000, 13, 110. […] These pilot experiments provide a proof-of-principle that molecules found to compete with pro-inflammatory LPS in vitro are also capable of combating symptoms of septic shock in vivo. Future sepsis models to be used in this proposal will account for bacterial clearance after antibiotic treatment, in vivo location and concentration of LPS, and the structural relationship between ASLA and MD2/TLR4 complex that will address some shortcomings of previous anti-sepsis therapeutics, which is the scientific premise of this proposal. Raetz et al., Annu. Rev. Biochem. 2002, 71, 635-700; Raetz et al., J. Lipid Res. 2009, 50 Suppl, S103-108; Needham et al., S. Nature Reviews Microbiology 2013, 11, 467-481; Ernst et al., Science 1999, 286, 1561-1565; Miller et al., Nature Reviews Microbiology 2005, 3, 36-46; Siegemund et al., Nat Immunol 2012, 13, 1031-1033; Rietschel et al., FASEB J. 1994, 8, 217-225; van Lieshout et al., Inflamm. Res. 2014, 63, 927-933; Buras et al., Nat Rev Drug Discov 2005, 4, 854-865.
Experimental Setup: Similarly to the non-lethal endotoxic shock model, in this in vivo model of lethal septic shock 6-week old C57BL6 mice were injected intraperitoneally with either 25 mg/kg E. coli (W3110) LPS, co-administered 25 mg/kg Ec LPS+10 mg/kg BECC468@26, or 25 mg/kg Ec LPS followed by 10 mg/kg BECC468@26 four hours later. Mice were monitored for survival every 12 hours post-injection. n=6 mice for each group, percent survival for each group is graphed.

In series [2] the target is T1, TLR4 (Homo sapiens, UniProt O00206+Q9Y6Y9). Nature of the series: NF-κB activation screen in THP-1 Dual reporter cells (SEAP under NFκB promoter). On the set-up: host or cells: THP-1 Dual reporter cells. Type of series: cell-based. The protocol:
To identify the most successful ASLA candidates to be tested for efficacy in vivo, we will stimulate both human and mouse cell cultures with increasing concentrations (0.01 ng/ml, 0.1 ng/ml, 1 ng/ml, 10 ng/ml, 100 ng/ml) of novel lipid A preparations for 4 and 24 hours. All in vitro assays will be run in biological triplicate to increase the scientific rigor of experiments. Activation of inflammatory pathways will be investigated by stimulating THP-1 cells (ATTC), a human monocytic cell line, followed by multiplex analysis of cytokines in the supernatant minimally including TNF-α, IL-8, and IL-6. We will also screen ASLA molecules using THP-1 Dual (Invitrogen) and HEK293 cells transfected with human or mouse MD2/TLR4 (Invitrogen), which have an easily detectable SEAP transcript under the NF-kB promoter to quickly evaluate the potential for these ASLA molecules to inhibit MyD88-NF-kB activation. To account for authentication of key biological resources, all cell lines were purchased from and verified by either ATCC or Invitrogen within the past year and cells used in experiments have been passaged less than 15 times since purchase. Together, these assays will illustrate a lack of inflammatory activation when cells are stimulated with the ASLA molecules. […]

The target in series [3] is T1, TLR4. Kind of series: Competitive inhibition of pro-inflammatory LPS in THP-1 Dual reporter cells. To be noted: Se LPS plus ASLA 470.
Description: THP-1 Dual cells (Invitrogen) contain an easily detected secreted alkaline phosphatase (SEAP) under the NFκB promoter. E. coli LPS (circles), ALSA 468 (squares), and E. coli LPS+a constant 10 ng/mL ASLA 468 (triangles) are cultured with THP-1 Dual over a 5-log dilution series, activation of NFκB, as measured by SEAP expression, is pictured.
To investigate the inflammatory properties of BECC synthesized molecules ASLA 468 and 470, THP-1 Dual cells (Invitrogen) were used to screen for NF-κB activation.
Experimental Setup: Reporter cell line THP-1 Duals (Invitrogen) are incubated for 18 hours over a five-log dose range with either Salmonella enterica (Se) LPS alone, BECC molecule alone (467@26, 468@26, 468@37, 469@26, 470@26, 470@37), or increasing doses of Se with a constant dose of BECC molecule (10 ng/mL). THP-1 Dual cells have a SEAP reporter under the NFκB promoter that is easily quantified in the supernatant of cultured cells. After 18 hours of culture supernatant is removed from the cell culture and SEAP is quantified to indicate the level of NFκB activation/inflammation. OD@620 nm can be directly extrapolated to represent relative amounts of NFκB activation. […] Mean±SD of duplicate samples is graphed for each data point.

pEC50: −log10 of the molar value.

T1 sequence (O00206 24-839): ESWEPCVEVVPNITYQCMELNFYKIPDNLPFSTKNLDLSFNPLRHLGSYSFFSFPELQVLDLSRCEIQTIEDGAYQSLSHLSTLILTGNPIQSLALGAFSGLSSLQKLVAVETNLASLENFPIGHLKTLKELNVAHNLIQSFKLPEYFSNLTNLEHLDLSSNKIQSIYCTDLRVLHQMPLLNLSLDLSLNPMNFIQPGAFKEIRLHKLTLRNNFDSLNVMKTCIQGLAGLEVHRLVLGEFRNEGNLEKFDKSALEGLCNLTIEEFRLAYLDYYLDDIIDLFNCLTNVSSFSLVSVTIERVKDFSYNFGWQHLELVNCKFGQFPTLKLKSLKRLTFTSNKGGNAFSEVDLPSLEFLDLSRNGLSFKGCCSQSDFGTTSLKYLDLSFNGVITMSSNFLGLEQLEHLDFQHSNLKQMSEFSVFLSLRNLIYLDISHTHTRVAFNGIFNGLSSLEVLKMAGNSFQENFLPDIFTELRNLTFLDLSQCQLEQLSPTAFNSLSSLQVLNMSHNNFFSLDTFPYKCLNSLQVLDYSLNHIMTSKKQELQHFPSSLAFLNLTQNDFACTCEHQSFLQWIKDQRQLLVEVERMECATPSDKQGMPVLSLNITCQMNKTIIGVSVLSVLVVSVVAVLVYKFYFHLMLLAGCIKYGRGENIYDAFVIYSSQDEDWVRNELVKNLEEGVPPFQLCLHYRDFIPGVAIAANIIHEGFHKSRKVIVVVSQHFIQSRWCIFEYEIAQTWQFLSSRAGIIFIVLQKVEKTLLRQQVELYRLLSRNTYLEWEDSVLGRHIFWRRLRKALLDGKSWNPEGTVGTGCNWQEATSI
T1 sequence (Q9Y6Y9 17-160 limits assumed): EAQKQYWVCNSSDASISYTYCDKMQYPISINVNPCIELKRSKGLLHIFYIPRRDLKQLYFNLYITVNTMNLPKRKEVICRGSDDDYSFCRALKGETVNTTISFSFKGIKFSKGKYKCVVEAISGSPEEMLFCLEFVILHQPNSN

A word on the pEC50: it is the negative decadic logarithm of the EC50, by convention in mol/L. Take `CCCCCC/C=C\CCCCCCCC(=O)OC(CCCCCCCCCCC)CC(=O)NC1[C@H](OCC2OC(OP(=O)(O)O)C(NC(=O)CC(O)CCCCCCCCCCC)[C@@H](OC(=O)CC(O)CCCCCCCCCCC)[C@@H]2O)OC(CO)C(O)[C@@H]1OC(=O)CC(CCCCCCCCCCC)OC(=O)CCCCCCCCCCC` (some centres unmarked) [ASLA 468]: the values for the survival rate in series [1] (10 mg/kg given 4 hours after 25 mg/kg Ec LPS) and in series [1] (10 mg/kg given simultaneously with 25 mg/kg Ec LPS) were 66.6% and 100%, respectively. Also, the pathogenic symptoms entry in series [1] (mice injected with ASLA 468 alone) is “no signs of pathogenic symptoms”. In addition, the figures for the survival in series [1] (treated 8 hours post-induction) and in series [1] (treated 12 hours post-induction) were 100% and 66.6%, respectively. The same molecule showed a pEC50 in series [2] of 7.16.
As to `CCCCCC/C=C\CCCCCCCC(=O)OC(CCCCCCCCCCC)CC(=O)NC1[C@H](OCC2OC(OP(=O)(O)O)C(NC(=O)CC(CCCCCCCCCCC)OC(=O)CCCCCCCCCCCCCCC)[C@@H](OC(=O)CC(O)CCCCCCCCCCC)[C@@H]2O)OC(CO)C(O)[C@@H]1OC(=O)CC(CCCCCCCCCCC)OC(=O)CCCCCCCCCCC` (some centres unmarked) [ASLA 470], the “agonist category (full, partial, or weak agonist) for NF-κB activation” value in series [2] (five-log dilution series, compared to Ec LPS positive control) is reported as “weak agonists”. Further, the “fold increase of the EC50 of Se LPS” value in series [3] is recorded as 1.9 fold.

The record behind these values is patent publication US11633411B2, “Methods of treating sepsis using anti-sepsis lipid A (ASLA) based therapeutics” (UNIVERSITY OF MARYLAND, BALTIMORE, priority 2016, dated 2023).
